Measurements reported in ChEMBL document CHEMBL1146323, “Design, synthesis, and evaluation of efflux substrate-metal chelator conjugates as potential antimicrobial agents” (2007).
Converted amounts (≈) assume the structure as drawn. The source made the active and inactive calls. No cut-off for these calls is given here.

What was measured:
Escherichia coli [1] = assay: Antimicrobial activity against Escherichia coli MC4100 assessed as inhibition zone at >2 mg/mL; assay type: functional, organism-based
Bacillus subtilis = assay: Antimicrobial activity against Bacillus subtilis; assay type: functional
Escherichia coli [2] = assay: Antimicrobial activity against Escherichia coli MC4100; assay type: functional

MIC (Bacillus subtilis) [µg/mL]	MIC (Escherichia coli [2]) [µg/mL]	Compound	Activity (Escherichia coli [1])
		O=C(CCN1c2ccccc2Sc2ccccc21)OCc1ccc(-c2cc(-c3ccccn3)nc(-c3ccccn3)c2)cc1	inactive
7.8 (≈ 12.7 µM)		O=C(CCCCCN1c2ccccc2Sc2ccccc21)NCc1ccc(CN(Cc2ccccn2)Cc2ccccn2)cc1	inactive
60 (≈ 94.7 µM)		O=C(CCCCCN1c2ccccc2Sc2ccccc21)NCc1ccc(CN2CCOCCOCCOCCOCC2)cc1	inactive
30 (≈ 52.5 µM)		O=C(CCN1c2ccccc2Sc2ccccc21)NCc1ccc(CN(Cc2ccccn2)Cc2ccccn2)cc1	inactive
16 (≈ 25 µM)		O=C(CCN1c2ccccc2Sc2ccc(C(F)(F)F)cc21)NCc1ccc(CN(Cc2ccccn2)Cc2ccccn2)cc1	inactive
7.8 (≈ 14 µM)	2000 (≈ 3580 µM)	O=C(CN1c2ccccc2Sc2ccccc21)NCc1ccc(CN2CCCNCCNCCCNCC2)cc1	
500 (≈ 758 µM)		O=C(CCN1c2ccccc2Sc2ccc(C(F)(F)F)cc21)NCc1ccc(CN2CCOCCOCCOCCOCC2)cc1	inactive
25 (≈ 71.5 µM)		CC1(C)S[C@@H]2[C@H](NC(=O)[C@H](N)c3ccccc3)C(=O)N2[C@H]1C(=O)O [AMPICILLIN]	
500 (≈ 788 µM)		O=C(CCCCCN1c2ccccc2Sc2ccccc21)OCc1ccc(-c2cc(-c3ccccn3)nc(-c3ccccn3)c2)cc1	inactive
< 3		NC[C@H]1O[C@H](O[C@H]2[C@H](O)[C@@H](O[C@H]3O[C@H](CO)[C@@H](O)[C@H](N)[C@H]3O)[C@H](N)C[C@@H]2N)[C@H](O)[C@@H](O)[C@@H]1O [KANAMYCIN]	
2000 (≈ 3380 µM)		O=C(CCN1c2ccccc2Sc2ccccc21)NCc1ccc(CN2CCOCCOCCOCCOCC2)cc1	inactive

Compound	MIC (Bacillus subtilis) [µg/mL]	MIC (Escherichia coli [2]) [µg/mL]	Activity (Escherichia coli [1])
c1ccc2c(c1)Nc1ccccc1S2 [PHENOTHIAZINE]	500 (≈ 2510 µM)		
